Experimental data: US8557800B2, “Sphingosine kinase inhibitors” (Apogee Biotechnology Corporation, priority 2005, dated 2013)
pIC50: −log10 of the molar value. Read-outs that look alike come from different tables or passages of the source.

What was measured:
[1] = test system: MCF-10A non-transformed human breast epithelial cells; assay: Cytotoxicity, SRB binding assay; assay type: cell-based; conditions: 48 h; for pIC50: inhibition of cell proliferation, read-out: MCF-10A IC50
Experimental: (§1) To further assess the biological efficacies of the Compounds in intact cells, each Compound was evaluated for cytotoxicity using human cancer cell lines. These experiments followed methods that have been extensively used. Cell lines tested included MCF-7 human breast adenocarcinoma cells and MCF-10A non-transformed human breast epithelial cells. The indicated cell lines were treated with varying doses of the test Compound for 48 h. Cell survival was then determined using the SRB binding assay (Skehan et al., 1990, J Natl Cancer Inst 82: 1107), and the concentration of compound that inhibited proliferation by 50% (the IC50) was calculated. Values (in μM) represent the mean±sd for replicate trials.

[2] = test system: MCF-7 human breast adenocarcinoma cells; assay: Cytotoxicity, SRB binding assay; assay type: cell-based; conditions: for pIC50: MCF7, inhibition of cell proliferation, 48 h, read-out: MCF-7 IC50
Experimental: as §1

recombinant human SK = assay: Inhibition of recombinant human SK, LC/MS/MS assay; assay type: biochemical; conditions: 6 μg/ml compound
Experimental: SK activity is measured by incubation of the recombinant SK with [^3H]sphingosine and 1 mM ATP under defined conditions, followed by extraction of the assay mixture with chloroform:methanol under basic conditions. […] Radioactivity in aliquots of the aqueous phase is then quantified as a measure of [^3H]S1P formation.
In an alternate assay procedure, the recombinant human SK was incubated with unlabeled sphingosine and ATP as described above. After 30 minutes, the reactions were terminated by the addition of acetonitrile to directly extract the newly synthesized S1P. The amount of S1P in the samples is then quantified as follows. C17 base D-erythro-sphingosine and C17 SIP are used as internal standards for sphingosine and S1P, respectively. […] The lipids are then fractionation by High-Performance Liquid Chromatography using a C8-reverse phase column eluted with 1 mM methanolic ammonium formate/2 mM aqueous ammonium formate. […] Calibration curves are generated by plotting the peak area ratios of the synthetic standards for each sphingolipid, and used to determine the normalized amounts of sphingosine and S1P in the samples.
Each Compound of this invention was tested for its ability to inhibit recombinant SK using the LC/MS/MS assay described above.

Structure (SMILES)	pIC50 [1]	pIC50 [2]	Recombinant SK (% inhibition) (recombinant human SK) [%]	IC50 ([1]; read-out: MCF-10A IC50 (μM)) [µM]	IC50 ([2]; MCF7, 48 h, read-out: MCF-7 IC50 (μM)) [µM]
CC(NC1CCN(C)CC1)C12CC3CC(CC(c4ccc(F)cc4)(C3)C1)C2 (stereo not shown) [Compound 106, {1-[3-(4-Fluoro-phenyl)-adamantan-1-yl]-ethyl}-(1-methyl-piperidin-4-yl)-amine]	5.22	5.70			
N#CCc1ccc(NC(=O)C23CC4CC(CC(C4)C2)C3)cc1 [Compound 10, Adamantane-1-carboxylic acid (4-cyanomethyl-phenyl)-amide]	3.77		3		
O=C(Nc1ccc(O)cc1)C12CC3CC(CC(C3)C1)C2 [Compound 5, Adamantane-1-carboxylic acid (4-hydroxy-phenyl)-amide]	4.52		100		
O=C(O)C12CC3CC(C1)CC(c1ccccc1)(C3)C2 [Compound 121, 3-Phenyl-adamantane-1-carboxylic acid]	3.75	4.89			
COC(=O)C(C(=O)OC)C(=O)C12CC3CC(CC(C3)C1)C2 [Compound 128, 2-(Adamantane-1-carbonyl)-malonic acid dimethyl ester]	4.20	4.47			
CC(=O)C12CC3CC(CC(C3)C1)C2 [Compound 124, 1-Adamantan-1-yl-ethanone]				105	11
CC(=O)C12CC3CC(C1)CC(c1ccc(Cl)cc1)(C3)C2 [Compound 127, 1-[3-(4-Chloro-phenyl)-adamantan-1-yl]-ethanone]	4.80	5.22			
O=C(O)C12CC3CC(C1)CC(c1ccc(Cl)cc1)(C3)C2 [Compound 123, 3-(4-Chloro-phenyl)-adamantane-1-carboxylic acid]	4.02	4.32			
CC(=O)C12CC3CC(C1)CC(c1ccc(F)cc1)(C3)C2 [Compound 126, 1-[3-(4-Fluoro-phenyl)-adamantan-1-yl]-ethanone]	5.22	5.70			
CC(Nc1ccccc1)C12CC3CC(CC(c4ccc(Cl)cc4)(C3)C1)C2 (stereo not shown) [Compound 95, {1-[3-(4-Chloro-phenyl)-adamantan-1-yl]-ethyl}-phenyl-amine]	4.17	4.66			
CC(NC1CCN(C)CC1)C12CC3CC(CC(c4ccccc4)(C3)C1)C2 (stereo not shown) [Compound 105, (1-Methyl-piperidin-4-yl)-[1-(3-phenyl-adamantan-1-yl)-ethyl]-amine]	4.85	5.30			
O=C(NCc1ccc(Cl)c(C(F)(F)F)c1)C12CC3CC(C1)CC(c1ccc(Cl)cc1)(C3)C2 [Compound 26, 3-(4-Chloro-phenyl)-adamantane-1-carboxylic acid 4-chloro-3-trifluoromethyl-benzylamide]		4.72	36		
CC(NCc1ccccc1)C12CC3CC(CC(C3)C1)C2 (stereo not shown) [Compound 96, (1-Adamantan-1-yl-ethyl)-benzyl-amine]	5.05	5.05			
CC(Nc1ccccc1)C12CC3CC(CC(c4ccccc4)(C3)C1)C2 (stereo not shown) [Compound 93, Phenyl-[1-(3-phenyl-adamantan-1-yl)-ethyl]-amine]		4.82	70		
CCSCCNC(=O)C12CC3CC(C1)CC(c1ccc(Cl)cc1)(C3)C2 [Compound 3, 3-(4-Chloro-phenyl)-adamantane-1-carboxylic acid (2-ethylsulfanyl-ethyl)-amide]		4.74	6		
CC(C)(C)NCCCNC(=O)C12CC3CC(C1)CC(c1ccc(Cl)cc1)(C3)C2 [Compound 53, 3-(4-Chloro-phenyl)-adamantane-1-carboxylic acid (3-tert-butylamino-propyl)-amide]		4.96	52		
O=C(NCc1cccc(OC(F)(F)F)c1)C12CC3CC(C1)CC(c1ccc(Cl)cc1)(C3)C2 [Compound 33, 3-(4-Chloro-phenyl)-adamantane-1-carboxylic acid 3-trifluoromethoxy-benzylamide]		4.52	10		
O=C(/C=C/c1ccc(Cl)cc1)C12CC3CC(C1)CC(c1ccc(Cl)cc1)(C3)C2 [Compound 130, 3-(4-Chloro-phenyl)-1-[3-(4-chloro-phenyl)-adamantan-1-yl]-propenone]		5.15	38		

Structure (SMILES)	pIC50 [1]	pIC50 [2]	Recombinant SK (% inhibition) (recombinant human SK) [%]	IC50 ([1]; read-out: MCF-10A IC50 (μM)) [µM]	IC50 ([2]; MCF7, 48 h, read-out: MCF-7 IC50 (μM)) [µM]
N#Cc1ccc(/C=C/C(=O)C23CC4CC(C2)CC(c2ccc(Cl)cc2)(C4)C3)cc1 [Compound 131, 4-{3-[3-(4-Chloro-phenyl)-adamantan-1-yl]-3-oxo-propenyl}-benzonitrile]		4.57	41		
O=C(NCCc1ccc2c(c1)OCO2)C12CC3CC(C1)CC(c1ccc(Cl)cc1)(C3)C2 [Compound 45, 3-(4-Chloro-phenyl)-adamantane-1-carboxylic acid (2-benzo[1,3]dioxol-5-yl-ethyl)-amide]		4.77	64		
O=C(NCc1ccc(F)c(Cl)c1)C12CC3CC(C1)CC(c1ccc(Cl)cc1)(C3)C2 [Compound 23, 3-(4-Chloro-phenyl)-adamantane-1-carboxylic acid 3-chloro-4-fluoro-benzylamide]		4.64	0		
COc1ccc(CCNC(=O)C23CC4CC(C2)CC(c2ccc(Cl)cc2)(C4)C3)cc1Br [Compound 42, 3-(4-Chloro-phenyl)-adamantane-1-carboxylic acid [2-(3-bromo-4-methoxy-phenyl)-ethyl]-amide]		< 4.00	5		
O=C(O)C12CC3CC(C1)CC(c1ccc(F)cc1)(C3)C2 [Compound 122, 3-(4-Fluoro-phenyl)-adamantane-1-carboxylic acid]	3.74	3.81			
O=C(NCc1cc(C(F)(F)F)cc(C(F)(F)F)c1)C12CC3CC(C1)CC(c1ccc(Cl)cc1)(C3)C2 [Compound 17, 3-(4-Chloro-phenyl)-adamantane-1-carboxylic acid 3,5-bis-trifluoromethyl-benzylamide]		4.77	56		
Clc1ccc(C23CC4CC(CC(CNCc5ccncc5)(C4)C2)C3)cc1 [Compound 88, [3-(4-Chloro-phenyl)-adamantan-1-ylmethyl]-pyridin-4-ylmethyl-amine]		4.96	1		
CN1CCN(NCC23CC4CC(C2)CC(c2ccc(Cl)cc2)(C4)C3)CC1 [Compound 83, [3-(4-Chloro-phenyl)-adamantan-1-ylmethyl]-(4-methyl-piperazin-1-yl)-amine]		5.30	60		
COC(=O)C(C(=O)OC)C(=O)C12CC3CC(C1)CC(c1ccc(Cl)cc1)(C3)C2 [Compound 129, 2-[3-(4-Chloro-phenyl)-adamantane-1-carbonyl]-malonic acid dimethyl ester]	3.98	4.80			
CC(=O)C12CC3CC(C1)CC(c1ccccc1)(C3)C2 [Compound 125, 1-(3-Phenyl-adamantan-1-yl)-ethanone]	4.23	5.10			
O=C(NCCc1ccc(Oc2ccccc2)cc1)C12CC3CC(C1)CC(c1ccc(Cl)cc1)(C3)C2 [Compound 47, 3-(4-Chloro-phenyl)-adamantane-1-carboxylic acid [2-(4-phenoxy-phenyl)-ethyl]-amide]		4.80	26		
CC(N)C12CC3CC(CC(c4ccc(Cl)cc4)(C3)C1)C2 (stereo not shown) [Compound 91, 1-[3-(4-Chloro-phenyl)-adamantan-1-yl]-ethylamine]	5.40	5.30			
O=C(NCc1ccc(Oc2ccccc2)cc1)C12CC3CC(C1)CC(c1ccc(Cl)cc1)(C3)C2 [Compound 34, 3-(4-Chloro-phenyl)-adamantane-1-carboxylic acid 4-phenoxy-benzylamide]		< 3.97	0		
O=C(NCc1ccc(F)cc1Cl)C12CC3CC(C1)CC(c1ccc(Cl)cc1)(C3)C2 [Compound 25, 3-(4-Chloro-phenyl)-adamantane-1-carboxylic acid 2-chloro-4-fluoro-benzylamide]		4.06	47		
O=C(NCc1ccc(OC(F)(F)F)cc1)C12CC3CC(C1)CC(c1ccc(Cl)cc1)(C3)C2 [Compound 32, 3-(4-Chloro-phenyl)-adamantane-1-carboxylic acid 4-trifluoromethoxy-benzylamide]		4.62	17		
CC(NC1CCN(C)CC1)C12CC3CC(CC(C3)C1)C2 (stereo not shown) [Compound 104, (1-Adamantan-1-yl-ethyl)-(1-methyl-piperidin-4-yl)-amine]		4.47	0		
CC(C)NC(C)C12CC3CC(CC(c4ccc(Cl)cc4)(C3)C1)C2 (stereo not shown) [Compound 92, {1-[3-(4-Chloro-phenyl)-adamantan-1-yl]-ethyl}-isopropyl-amine]	5.22	5.70			
